Consider 3 compounds from patent US20200239530A1, “COMPOUNDS AND METHODS OF MODULATING PROTEIN DEGRADATION” (Vividion Therapeutics, Inc., priority 2017, published 2020).

What all share (assay): Cysteine liganding, probe competition
Holding throughout (format): binding

Experiment [1] deals with T1, TAPBP Tapasin (Homo sapiens, UniProt O15533).
T1 construct: Cells were resuspended in cold PBS on ice and sonicated with a probe sonicator to achieve lysis; endogenous in cells
T1 sequence (O15533 21-448): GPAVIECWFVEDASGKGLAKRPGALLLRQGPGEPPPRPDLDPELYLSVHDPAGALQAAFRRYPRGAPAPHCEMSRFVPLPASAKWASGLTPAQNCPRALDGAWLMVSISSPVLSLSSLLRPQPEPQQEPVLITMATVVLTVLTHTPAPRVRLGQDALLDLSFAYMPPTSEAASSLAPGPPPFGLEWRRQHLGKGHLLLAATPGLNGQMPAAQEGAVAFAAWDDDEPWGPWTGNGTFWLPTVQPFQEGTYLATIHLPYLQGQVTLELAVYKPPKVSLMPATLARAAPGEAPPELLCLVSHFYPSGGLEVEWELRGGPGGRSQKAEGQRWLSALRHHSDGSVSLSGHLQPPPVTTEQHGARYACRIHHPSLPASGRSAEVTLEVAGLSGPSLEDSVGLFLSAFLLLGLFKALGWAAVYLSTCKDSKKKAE
A digest of the protocol: (§1)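 Lysates from probe-sonicated cells in PBS (5 mg/ml proteome) were exposed to compound for 1 hr at 25° C, then labelled with desthiobiotin iodoacetamide probe (10 mM stock) for 1 hr at 25° C. Probe-tagged peptides were streptavidin-enriched after trypsin digestion.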

For experiment [2], the target named is T2, HUWE1 E3 ubiquitin-protein ligase HUWE1 (Homo sapiens, UniProt Q7Z6Z7).
T2 construct: Cells were resuspended in cold PBS on ice and sonicated with a probe sonicator to achieve lysis; endogenous in cells
T2 sequence (Q7Z6Z7 whole entry): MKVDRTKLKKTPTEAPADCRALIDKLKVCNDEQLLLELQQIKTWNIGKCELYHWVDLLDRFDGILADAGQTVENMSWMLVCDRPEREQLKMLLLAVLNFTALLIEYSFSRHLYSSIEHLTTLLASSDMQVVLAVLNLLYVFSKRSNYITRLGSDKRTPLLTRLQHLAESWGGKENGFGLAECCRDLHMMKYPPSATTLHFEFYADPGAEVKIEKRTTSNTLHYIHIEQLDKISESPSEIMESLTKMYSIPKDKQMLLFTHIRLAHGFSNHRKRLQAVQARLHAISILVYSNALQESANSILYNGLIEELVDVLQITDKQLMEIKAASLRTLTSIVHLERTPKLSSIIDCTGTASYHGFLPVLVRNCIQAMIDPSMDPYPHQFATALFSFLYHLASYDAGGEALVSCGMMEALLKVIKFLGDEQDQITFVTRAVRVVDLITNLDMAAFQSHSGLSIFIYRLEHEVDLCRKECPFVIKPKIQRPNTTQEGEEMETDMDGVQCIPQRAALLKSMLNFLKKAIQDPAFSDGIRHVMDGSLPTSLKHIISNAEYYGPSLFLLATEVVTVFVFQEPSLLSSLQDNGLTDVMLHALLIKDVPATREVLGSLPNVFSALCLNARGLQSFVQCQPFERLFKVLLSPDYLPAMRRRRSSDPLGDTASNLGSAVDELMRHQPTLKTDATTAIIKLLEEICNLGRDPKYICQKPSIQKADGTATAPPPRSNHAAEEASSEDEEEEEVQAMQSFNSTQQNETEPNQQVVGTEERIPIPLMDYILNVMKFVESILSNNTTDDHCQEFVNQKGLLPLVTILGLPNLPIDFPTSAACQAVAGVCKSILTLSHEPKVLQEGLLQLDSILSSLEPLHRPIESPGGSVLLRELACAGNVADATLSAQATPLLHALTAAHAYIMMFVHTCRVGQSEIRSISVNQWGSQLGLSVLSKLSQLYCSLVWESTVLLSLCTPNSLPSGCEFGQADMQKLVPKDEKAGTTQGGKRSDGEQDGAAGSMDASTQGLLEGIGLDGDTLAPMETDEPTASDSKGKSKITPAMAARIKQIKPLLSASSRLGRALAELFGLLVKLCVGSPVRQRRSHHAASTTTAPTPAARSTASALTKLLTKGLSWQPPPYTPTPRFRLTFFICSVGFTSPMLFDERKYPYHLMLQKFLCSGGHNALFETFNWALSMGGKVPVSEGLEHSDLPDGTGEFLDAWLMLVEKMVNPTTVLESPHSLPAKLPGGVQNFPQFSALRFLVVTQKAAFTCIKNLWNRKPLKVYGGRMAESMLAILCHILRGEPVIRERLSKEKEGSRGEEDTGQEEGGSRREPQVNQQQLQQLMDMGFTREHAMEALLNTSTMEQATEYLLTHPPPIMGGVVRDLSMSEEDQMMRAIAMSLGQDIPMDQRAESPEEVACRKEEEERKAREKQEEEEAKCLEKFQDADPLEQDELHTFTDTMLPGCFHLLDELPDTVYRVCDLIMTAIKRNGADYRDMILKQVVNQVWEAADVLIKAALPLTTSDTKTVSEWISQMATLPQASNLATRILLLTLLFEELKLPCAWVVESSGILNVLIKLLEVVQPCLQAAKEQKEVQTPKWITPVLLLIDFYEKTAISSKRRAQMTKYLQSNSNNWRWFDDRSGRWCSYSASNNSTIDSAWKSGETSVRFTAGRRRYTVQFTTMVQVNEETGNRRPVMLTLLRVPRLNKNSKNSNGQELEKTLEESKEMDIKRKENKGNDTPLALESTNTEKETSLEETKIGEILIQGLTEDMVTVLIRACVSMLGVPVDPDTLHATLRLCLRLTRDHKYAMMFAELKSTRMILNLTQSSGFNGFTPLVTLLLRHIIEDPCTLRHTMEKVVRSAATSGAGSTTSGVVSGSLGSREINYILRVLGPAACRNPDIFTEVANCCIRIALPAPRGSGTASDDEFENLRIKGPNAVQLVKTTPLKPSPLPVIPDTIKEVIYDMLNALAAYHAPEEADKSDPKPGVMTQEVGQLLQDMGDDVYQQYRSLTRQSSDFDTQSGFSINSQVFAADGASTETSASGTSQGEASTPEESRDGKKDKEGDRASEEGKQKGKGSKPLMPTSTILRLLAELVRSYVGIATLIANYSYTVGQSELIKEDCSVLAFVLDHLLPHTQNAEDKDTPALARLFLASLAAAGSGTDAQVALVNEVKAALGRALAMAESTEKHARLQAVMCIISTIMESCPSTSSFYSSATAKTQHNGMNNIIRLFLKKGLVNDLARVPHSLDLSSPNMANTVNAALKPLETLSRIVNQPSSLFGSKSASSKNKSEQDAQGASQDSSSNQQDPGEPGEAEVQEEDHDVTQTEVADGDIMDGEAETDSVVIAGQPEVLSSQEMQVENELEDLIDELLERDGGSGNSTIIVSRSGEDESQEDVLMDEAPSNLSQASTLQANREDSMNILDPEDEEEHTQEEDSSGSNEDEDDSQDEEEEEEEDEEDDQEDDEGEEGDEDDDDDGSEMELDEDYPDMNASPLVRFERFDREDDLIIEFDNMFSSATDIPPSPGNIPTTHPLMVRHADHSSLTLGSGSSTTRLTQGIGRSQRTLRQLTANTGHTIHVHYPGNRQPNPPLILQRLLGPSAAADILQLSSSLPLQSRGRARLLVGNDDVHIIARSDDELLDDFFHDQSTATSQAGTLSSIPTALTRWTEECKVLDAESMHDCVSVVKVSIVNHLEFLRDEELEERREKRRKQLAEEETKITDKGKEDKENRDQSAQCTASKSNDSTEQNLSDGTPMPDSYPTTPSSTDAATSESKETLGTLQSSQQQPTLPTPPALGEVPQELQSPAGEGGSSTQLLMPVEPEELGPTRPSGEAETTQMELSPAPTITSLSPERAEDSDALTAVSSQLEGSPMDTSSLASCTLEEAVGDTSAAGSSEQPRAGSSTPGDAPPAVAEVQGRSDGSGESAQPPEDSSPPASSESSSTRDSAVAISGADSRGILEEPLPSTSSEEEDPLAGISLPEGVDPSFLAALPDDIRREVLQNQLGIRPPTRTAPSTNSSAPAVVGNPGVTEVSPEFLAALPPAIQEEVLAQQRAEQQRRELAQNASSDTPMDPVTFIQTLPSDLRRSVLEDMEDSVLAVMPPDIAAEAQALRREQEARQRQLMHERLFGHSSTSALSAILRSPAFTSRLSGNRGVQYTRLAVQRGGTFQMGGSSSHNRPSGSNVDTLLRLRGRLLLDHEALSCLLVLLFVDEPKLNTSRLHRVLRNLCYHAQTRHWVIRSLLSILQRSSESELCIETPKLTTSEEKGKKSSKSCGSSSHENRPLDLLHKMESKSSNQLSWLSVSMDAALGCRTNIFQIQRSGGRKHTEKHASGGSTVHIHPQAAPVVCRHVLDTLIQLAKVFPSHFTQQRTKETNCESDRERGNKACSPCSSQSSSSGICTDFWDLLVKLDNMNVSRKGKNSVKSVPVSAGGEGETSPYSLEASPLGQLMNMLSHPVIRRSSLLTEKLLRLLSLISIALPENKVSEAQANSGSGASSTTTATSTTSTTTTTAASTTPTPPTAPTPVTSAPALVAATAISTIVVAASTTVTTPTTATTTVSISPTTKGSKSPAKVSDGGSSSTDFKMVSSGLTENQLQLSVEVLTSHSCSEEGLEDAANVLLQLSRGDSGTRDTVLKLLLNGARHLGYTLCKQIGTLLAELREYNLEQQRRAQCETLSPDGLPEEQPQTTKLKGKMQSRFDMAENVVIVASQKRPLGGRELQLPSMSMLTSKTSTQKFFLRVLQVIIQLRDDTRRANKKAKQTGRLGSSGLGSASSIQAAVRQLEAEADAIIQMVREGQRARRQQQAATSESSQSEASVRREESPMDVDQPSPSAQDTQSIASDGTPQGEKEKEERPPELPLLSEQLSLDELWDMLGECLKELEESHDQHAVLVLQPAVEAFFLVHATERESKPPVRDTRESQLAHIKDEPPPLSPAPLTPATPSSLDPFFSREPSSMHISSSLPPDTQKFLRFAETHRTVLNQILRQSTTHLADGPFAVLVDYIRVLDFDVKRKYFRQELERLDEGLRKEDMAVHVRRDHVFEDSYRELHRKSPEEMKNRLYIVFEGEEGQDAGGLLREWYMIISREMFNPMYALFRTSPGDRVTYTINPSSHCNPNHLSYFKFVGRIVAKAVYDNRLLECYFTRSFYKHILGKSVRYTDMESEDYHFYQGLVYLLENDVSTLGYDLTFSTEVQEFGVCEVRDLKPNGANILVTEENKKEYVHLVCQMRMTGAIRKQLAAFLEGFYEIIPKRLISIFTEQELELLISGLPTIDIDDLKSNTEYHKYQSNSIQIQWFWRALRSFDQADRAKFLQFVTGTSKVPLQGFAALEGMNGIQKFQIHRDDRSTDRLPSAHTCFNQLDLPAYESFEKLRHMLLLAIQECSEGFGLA
A digest of the protocol:
as §1

The target in experiment [3] is T3, SEC63 Translocation protein SEC63 homolog (Homo sapiens, UniProt Q9UGP8).
T3 construct: Cells were resuspended in cold PBS on ice and sonicated with a probe sonicator to achieve lysis; endogenous in cells
T3 sequence (Q9UGP8 1-760): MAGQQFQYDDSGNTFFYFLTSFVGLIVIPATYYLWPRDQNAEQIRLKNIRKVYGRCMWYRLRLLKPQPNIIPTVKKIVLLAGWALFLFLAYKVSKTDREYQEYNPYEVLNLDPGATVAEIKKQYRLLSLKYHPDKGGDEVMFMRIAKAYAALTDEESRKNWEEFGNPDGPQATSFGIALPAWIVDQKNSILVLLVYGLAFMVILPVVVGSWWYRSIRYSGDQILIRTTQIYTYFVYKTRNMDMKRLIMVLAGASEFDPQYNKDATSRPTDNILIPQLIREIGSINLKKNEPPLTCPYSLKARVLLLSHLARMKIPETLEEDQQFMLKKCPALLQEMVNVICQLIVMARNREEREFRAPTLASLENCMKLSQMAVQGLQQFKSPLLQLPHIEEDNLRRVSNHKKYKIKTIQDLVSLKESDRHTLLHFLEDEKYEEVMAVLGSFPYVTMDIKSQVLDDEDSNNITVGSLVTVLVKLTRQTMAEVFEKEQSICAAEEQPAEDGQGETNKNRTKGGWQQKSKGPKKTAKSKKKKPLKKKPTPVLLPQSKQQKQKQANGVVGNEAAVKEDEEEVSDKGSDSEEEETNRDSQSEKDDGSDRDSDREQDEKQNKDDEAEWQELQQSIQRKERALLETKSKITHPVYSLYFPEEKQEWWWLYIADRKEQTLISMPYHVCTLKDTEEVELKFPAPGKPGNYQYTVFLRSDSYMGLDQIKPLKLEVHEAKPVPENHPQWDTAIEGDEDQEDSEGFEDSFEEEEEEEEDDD
Put shortly: as §1

Experiment [4] concerns the target T4, TUBA3D Tubulin alpha-3C/D chain (Homo sapiens, UniProt P0DPH8).
T4 construct: Cells were resuspended in cold PBS on ice and sonicated with a probe sonicator to achieve lysis; endogenous in cells
Put shortly:
as §1

Experiment [5] concerns the target T5, E3 ubiquitin-protein ligase pellino homolog 1 (PELI1) (Homo sapiens, UniProt Q96FA3).
T5 construct: Cells were resuspended in cold PBS on ice and sonicated with a probe sonicator to achieve lysis; endogenous in cells
A digest of the protocol: as §1

T4 sequence (P0DPH8 whole entry, looked up): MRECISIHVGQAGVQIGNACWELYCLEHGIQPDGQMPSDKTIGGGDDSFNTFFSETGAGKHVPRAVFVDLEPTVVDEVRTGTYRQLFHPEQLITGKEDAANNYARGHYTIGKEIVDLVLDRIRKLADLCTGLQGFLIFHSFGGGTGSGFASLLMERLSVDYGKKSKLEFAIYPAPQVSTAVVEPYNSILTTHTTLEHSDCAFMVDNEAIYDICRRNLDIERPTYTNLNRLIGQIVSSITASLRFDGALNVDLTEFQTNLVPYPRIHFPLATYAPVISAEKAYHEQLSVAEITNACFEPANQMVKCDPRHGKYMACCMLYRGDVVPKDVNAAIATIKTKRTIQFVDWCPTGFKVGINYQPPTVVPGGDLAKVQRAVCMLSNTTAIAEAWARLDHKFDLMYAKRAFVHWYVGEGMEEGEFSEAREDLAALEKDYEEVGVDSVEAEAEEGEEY

For the compound `O=C(CCl)Nc1cc(C(F)(F)F)cc(C(F)(F)F)c1` [KBO3], the “100 Max” value is 31.4264 in experiment [1] (uniprot O15533); 9.7% in experiment [2] (uniprot Q7Z6Z7, unit assumed); 17.92 in experiment [3] (uniprot Q9UGP8). Besides, the 100 ave turned out to be 28.54 in experiment [1] (uniprot O15533), 9.7 in experiment [2] (uniprot Q7Z6Z7) and 4.99 in experiment [3] (uniprot Q9UGP8). Further, the “500 Max” value came to 68.7451 in experiment [1] (uniprot O15533) and 55.53 in experiment [3] (uniprot Q9UGP8). The 500 ave in experiment [1] (uniprot O15533) is 68.7451; in experiment [3] (uniprot Q9UGP8), 48.96. In addition, the Liganded entry in experiment [4] (TUBA3D Res# 4, uniprot Q13748) is given as “YES”; in experiment [4] (TUBA3D Res# 20, uniprot Q13748) it was “YES”. The “KB03_100 uM_percent_inhibition” value in experiment [5] (100 uM) worked out at 57%.
Take `COc1ccc2c(c1)CCCN2C(=O)CCl` [KB02]: the Liganded result was “YES” in experiment [1] (TAPBP Res# 440, uniprot O15533); “YES” in experiment [2] (HUWE1 Res# 2181, uniprot Q7Z6Z7); “YES” in experiment [3] (SEC63 Res# 295, uniprot Q9UGP8); “YES” in experiment [4] (TUBA3D Res# 4, uniprot Q13748); “YES” in experiment [4] (TUBA3D Res# 20, uniprot Q13748).
As for `C=CC(=O)N(c1ccccc1)c1ccc(Br)cc1` [KB05], the inhibition at 100 µM in experiment [5] (read-out: KB05_100 uM_percent_inhibition) came to 2%.
